Source: ChEMBL document CHEMBL4190182 (Medchemcomm, 2016)

Legend:
[1] = target: Sigma non-opioid intracellular receptor 1 (Cavia porcellus, UniProt Q60492); assay: Displacement of [3H]-(+)-Pentazocine from sigma1 receptor in guinea pig brain cortex membranes after 120 mins by scintillation counting analysis; type: cell membranes
[2] = target: T1, Sigma intracellular receptor 2 (Rattus norvegicus, UniProt Q5U3Y7); assay: Displacement of [3H]DTG from sigma2 receptor in Sprague-Dawley rat liver membranes after 120 mins by scintillation counting analysis; type: cell membranes, Membrane
T1 sequence (Q5U3Y7 whole entry): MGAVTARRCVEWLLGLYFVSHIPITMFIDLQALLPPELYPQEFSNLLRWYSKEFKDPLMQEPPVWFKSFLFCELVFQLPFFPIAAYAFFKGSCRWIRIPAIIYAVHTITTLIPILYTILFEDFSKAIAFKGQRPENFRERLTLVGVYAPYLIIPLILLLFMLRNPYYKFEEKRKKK

Mu-type opioid receptor = Mu-type opioid receptor (Cavia porcellus, UniProt P97266); assay: Displacement of [3H]DAMGO from mu opioid receptor in guinea pig brain membranes after 120 mins by scintillation counting analysis; type: cell membranes, Membrane
Sequence of Mu-type opioid receptor (P97266 whole entry): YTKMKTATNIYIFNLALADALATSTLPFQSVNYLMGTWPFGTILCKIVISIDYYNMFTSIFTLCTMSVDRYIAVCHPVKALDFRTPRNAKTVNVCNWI

[3] = target: T2, Kappa-type opioid receptor (Cavia porcellus, UniProt P41144); assay: Displacement of [3H]U-69,593 from kappa opioid receptor in guinea pig brain membranes after 120 mins by scintillation counting analysis; type: cell membranes, Membrane
T2 sequence (P41144 whole entry): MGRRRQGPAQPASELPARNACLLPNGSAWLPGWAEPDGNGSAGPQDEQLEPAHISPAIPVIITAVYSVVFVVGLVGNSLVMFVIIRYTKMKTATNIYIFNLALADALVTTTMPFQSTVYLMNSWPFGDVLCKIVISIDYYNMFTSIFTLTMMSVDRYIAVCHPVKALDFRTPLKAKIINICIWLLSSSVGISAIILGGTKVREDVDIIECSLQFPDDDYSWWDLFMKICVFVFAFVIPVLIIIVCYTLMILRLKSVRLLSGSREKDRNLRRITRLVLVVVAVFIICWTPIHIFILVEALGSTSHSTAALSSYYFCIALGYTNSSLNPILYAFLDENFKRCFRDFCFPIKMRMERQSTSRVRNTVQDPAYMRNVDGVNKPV

[4] = target: Delta-type opioid receptor (Rattus norvegicus, UniProt P33533); assay: Displacement of [3H]DPDPE from delta opioid receptor in Sprague-Dawley rat brain membranes after 120 mins by scintillation counting analysis; type: cell membranes, Membrane
Sequence of Delta-type opioid receptor (P33533 whole entry): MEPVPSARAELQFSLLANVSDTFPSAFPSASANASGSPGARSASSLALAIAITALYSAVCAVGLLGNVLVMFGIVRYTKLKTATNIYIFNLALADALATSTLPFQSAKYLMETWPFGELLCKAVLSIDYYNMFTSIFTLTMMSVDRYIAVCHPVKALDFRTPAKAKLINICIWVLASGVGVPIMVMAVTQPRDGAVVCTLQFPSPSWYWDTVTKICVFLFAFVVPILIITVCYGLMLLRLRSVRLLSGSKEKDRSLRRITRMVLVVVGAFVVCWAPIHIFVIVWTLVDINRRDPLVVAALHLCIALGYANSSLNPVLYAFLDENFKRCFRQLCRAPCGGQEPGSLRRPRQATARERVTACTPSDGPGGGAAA

[5] = target: T2, Kappa-type opioid receptor; assay: Displacement of [3H]U-69,593 from kappa opioid receptor in guinea pig brain membranes by scintillation counting analysis; type: cell membranes, Membrane
[6] = target: Kappa-type opioid receptor (Homo sapiens) (UniProt P41145); assay: Agonist activity at kappa opioid receptor in HEK293 cells at 1 uM after 30 mins by [35S]-GTPgammaS binding assay relative to control; type: functional, cell-based
Sequence of Kappa-type opioid receptor (Homo sapiens) (P41145 whole entry): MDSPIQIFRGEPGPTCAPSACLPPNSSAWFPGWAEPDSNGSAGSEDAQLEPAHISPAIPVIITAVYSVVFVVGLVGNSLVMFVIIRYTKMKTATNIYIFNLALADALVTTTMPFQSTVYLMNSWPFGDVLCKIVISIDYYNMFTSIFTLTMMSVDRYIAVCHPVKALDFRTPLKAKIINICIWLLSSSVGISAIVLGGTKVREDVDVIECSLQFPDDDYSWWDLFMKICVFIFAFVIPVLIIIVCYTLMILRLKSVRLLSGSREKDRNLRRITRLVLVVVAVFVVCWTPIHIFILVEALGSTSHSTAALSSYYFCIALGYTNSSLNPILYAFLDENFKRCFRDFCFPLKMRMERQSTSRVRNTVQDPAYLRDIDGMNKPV

Sequence of Sigma non-opioid intracellular receptor 1 (Q60492 whole entry): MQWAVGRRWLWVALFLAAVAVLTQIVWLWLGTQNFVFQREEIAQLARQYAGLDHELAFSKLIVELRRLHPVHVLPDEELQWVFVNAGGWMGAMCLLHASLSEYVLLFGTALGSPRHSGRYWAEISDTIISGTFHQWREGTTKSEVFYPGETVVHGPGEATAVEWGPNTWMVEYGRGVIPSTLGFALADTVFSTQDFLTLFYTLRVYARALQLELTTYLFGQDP

O=C(Cc1ccc(Cl)c(Cl)c1)N1CCOC2CN(C3CCCC3)CC(N3CCCC3)C21 (racemic)
Ki [1]: 181 nM
Ki [2]: 45 nM
Ki (Mu-type opioid receptor): 447 nM
Ki [3]: > 1000 nM
Ki [4]: 717 nM

CCN1CC2OCCN(C(=O)Cc3ccc(Cl)c(Cl)c3)C2C(N2CCCC2)C1 (racemic)
Ki [1]: 391 nM
Ki [2]: 102 nM
Ki (Mu-type opioid receptor): > 1000 nM
Ki [3]: 1300 nM
Ki [4]: > 1000 nM

O=C1COC2CN(C(=O)Cc3ccc(Cl)c(Cl)c3)CC(N3CCCC3)C2N1 (racemic)
Ki [1]: > 1000 nM
Ki [2]: > 1000 nM
Ki (Mu-type opioid receptor): > 1000 nM
Ki [3]: > 1000 nM
Ki [4]: > 1000 nM

COC(=O)N1CCC(NC(=O)Cc2ccc(Cl)c(Cl)c2)C([C@@H](C)N2CCCC2)C1 (stereo partly drawn)
Ki [5]: 0.31 nM

O=C(Cc1ccc(Cl)c(Cl)c1)N1CCOC2CN(Cc3cccnc3)CC(N3CCCC3)C21 (racemic)
Ki [1]: 291 nM
Ki [2]: > 1000 nM
Ki (Mu-type opioid receptor): 633 nM
Ki [3]: > 1000 nM
Ki [4]: 666 nM

O=C(Cc1ccc(Cl)c(Cl)c1)N1CC2OCCN(C(=O)Cc3ccc(Cl)c(Cl)c3)C2C(N2CCCC2)C1 (racemic)
Ki [2]: > 1000 nM

O=C(Cc1ccc(Cl)c(Cl)c1)N1CCOC2CNCC(N3CCCC3)C21 (racemic)
Ki [1]: > 1000 nM
Ki [2]: > 1000 nM
Ki (Mu-type opioid receptor): > 1000 nM
Ki [3]: 132 nM
Activity [6]: 27%
Ki [4]: > 1000 nM

CN1CC2OCCN(C(=O)Cc3ccc(Cl)c(Cl)c3)C2C(N2CCCC2)C1 (racemic)
Ki [1]: > 1000 nM
Ki [2]: > 1000 nM
Ki (Mu-type opioid receptor): > 1000 nM
Ki [3]: 286 nM
Ki [4]: > 1000 nM

CCCCN1CC2OCCN(C(=O)Cc3ccc(Cl)c(Cl)c3)C2C(N2CCCC2)C1 (racemic)
Ki [1]: 192 nM
Ki [2]: 316 nM
Ki (Mu-type opioid receptor): 502 nM
Ki [3]: > 1000 nM
Ki [4]: > 1000 nM

O=C(Cc1ccc(Cl)c(Cl)c1)N1CCOC2CN(Cc3ccccc3)CC(N3CCCC3)C21 (racemic)
Ki [1]: 983 nM
Ki [2]: > 1000 nM
Ki (Mu-type opioid receptor): 261 nM
Ki [3]: 912 nM
Ki [4]: 260 nM
